According to patent US12522597B2, “Methods and compositions for modulating splicing” (Skyhawk Therapeutics, Inc., priority 2019, dated 2026):

Legend:
mHTT protein = mHTT protein assay (2B7-MW1, Mesoscale Discovery); assay type: cell-based, human; conditions: GM04724 (CAG 70/20) Huntington's disease patient lymphoblast cells, 48 hours, 2B7-MW1 MSD; read-out: HTT Potency - Protein EC50 mHTT (average)
How it was run: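 mHTT levels were read with the 2B7-MW1 antibody pair (N17 and polyQ epitopes) on MSD after 48 h dosing, 10 μM–0.6 nM. Cells were GM04724 HD lymphoblasts (CAG 70/20). A replica plate was read by CTG for cell viability.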

[1] = system: MDR1-MDCK cell monolayers; experiment: MDCK-MDR1 permeability assay (BBB penetration potential); assay type: in vitro ADME; conditions: dog, MDCK-MDR1, 120 min, 5 μM, pH 7.4
Experimental: (§1) Each determination is performed in duplicate. […] Analytical conditions are outlined below.

MDR1 = experiment: as above; assay type: in vitro ADME; conditions: dog; for efflux ratio at 120 min, 5 μM: MDCK-MDR1, pH 7.4, MDCK-MDR1: Efflux; for Papp A→B at 120 min, 5 μM: MDCK-MDR1, pH 7.4, MDCK-MDR1: Papp A-B; for Papp B→A at 120 min, 5 μM: MDCK-MDR1, pH 7.4, MDCK-MDR1: Papp B-A
Experimental: as §1

Compound	EC50 (mHTT protein) [nM]	MDCK-MDR1: % Recov A-B [1] [%]	MDCK-MDR1: % Recov B-A [1] [%]	efflux ratio at 120 min, 5 μM (MDR1)	Papp A→B at 120 min, 5 μM (MDR1) [×10⁻⁶ cm/s]	Papp B→A at 120 min, 5 μM (MDR1) [×10⁻⁶ cm/s]
Oc1cc2ccncc2cc1-c1ccc(O[C@H]2C[C@@H]3CCC[C@@H](N3)[C@H]2F)nn1 (single isomer, unassigned) [81-ENT2]	501 to 10000	69	81	3	9.23	26.4
Cc1nnc(-c2ccc(-c3ccc(O[C@H]4C[C@@H]5CCC[C@@H](N5)[C@H]4F)nn3)c(O)c2)o1 (single isomer, unassigned) [94-ENT2]	101 to 500	93	87	7	6.35	46.7
Cc1cc(-c2ccc(-c3ccc(O[C@H]4C[C@@H]5CCC[C@@H](N5)[C@H]4F)nn3)c(O)c2)ccn1 (single isomer, unassigned) [88-ENT2]	16 to 50	51	71	4	5.13	21.5
N#Cc1ccc(-c2ccc(O[C@@H]3C[C@H]4CC[C@H](N4)[C@@H]3F)nn2)c(O)c1 (single isomer, unassigned) [111-ENT1]	501 to 10000	90	92	3	15.6	44.7
Cc1cncc(-c2ccc(-c3ccc(O[C@@H]4C[C@H]5CCC[C@H](N5)[C@@H]4F)nn3)c(O)c2)c1 (single isomer, unassigned) [89-ENT1]	501 to 10000	68	76	6	6.05	33.8
Cn1ccc(=O)c2cc(-c3ccc(O[C@@H]4C[C@@]5(C)CCC[C@](C)(N5)[C@@H]4F)nn3)c(O)cc21 (single isomer, unassigned) [131-ENT2]	501 to 10000	91	96	56	0.79	44.6
Cn1cc(-c2ccc(-c3ccc(O[C@H]4C[C@]5(C)CC[C@@](C)(N5)[C@H]4F)nn3)c(O)c2)cn1 (single isomer, unassigned) [150-ENT1]	51 to 100	77	85	4	7.55	27.9
Oc1cc2ccncc2cc1-c1ccc(O[C@@H]2C[C@H]3CCC[C@H](N3)[C@@H]2F)nn1 (single isomer, unassigned) [81-ENT1]	501 to 10000	69	77	3	7.34	22.8
Oc1cc(-c2ccccn2)ccc1-c1ccc(O[C@H]2C[C@@H]3CCC[C@@H](N3)[C@H]2F)nn1 (single isomer, unassigned) [77-ENT2]	101 to 500	57	79	5	6.32	30.2
Cn1cc(-c2cc(O)c(-c3ccc(O[C@@H]4CC5CC[C@H](N5)[C@@H]4F)nn3)cn2)cn1 (single isomer, unassigned) [63-ENT1]	501 to 10000	103	110	37	0.29	10.9
C[C@@]12CCC[C@@](C)(N1)[C@@H](F)[C@@H](Oc1ccc(-c3ccc(C#N)cc3O)nn1)C2 (single isomer, unassigned) [145-ENT2]	501 to 10000	89	100	8	7.75	58.9
